Literature values in US10894017B1 (XSPRAY PHARMA AB, priority 2019, dated 2021).

Assays:
[1] = clinical bio-equivalence studies
[2] = high permeability and low solubility
[3] = within and between patients

For `CC(O)CO.Cc1nc(Nc2ncc(C(=O)Nc3c(C)cccc3Cl)s2)cc(N2CCN(CCO)CC2)n1` [1,2-propanediol solvate, dasatinib 1,2-propanediol solvate], the “AUC compared to Sprycel” value [1] is listed as “higher AUC”.
For `Cc1nc(Nc2ncc(C(=O)Nc3c(C)cccc3Cl)s2)cc(N2CCN(CCO)CC2)n1` [Dasatinib monohydrate], the BCS classification [2] is given as “BCS II”.
In the case of `Cc1nc(Nc2ncc(C(=O)Nc3c(C)cccc3Cl)s2)cc(N2CCN(CCO)CC2)n1` [anhydrate form N-6], the “AUC compared to Sprycel” value [1] is listed as “higher AUC”.
For `Cc1nc(Nc2ncc(C(=O)Nc3c(C)cccc3Cl)s2)cc(N2CCN(CCO)CC2)n1` [dasatinib], the “coefficient of variation of AUC” value [3] is given as “up to 100%” and the “coefficient of variation of Cmax” value [3] is given as “up to 100%”.
